# Values quoted from earlier work, collected in patent publication US12605354B2, “Azelaic acid esters in the treatment or prevention of dyslipidemia and associated conditions” (NEW FRONTIER LABS, LLC, priority 2020, dated 2026).
# Where two headings read alike, the source gives them in different places.
# Columns and labels:
# [1] = cited from earlier work; for Hypoglycemia: reference 51
# [2] = system: 4750 prediabetic subjects; settings: cited from earlier work
# [3] = 15-year study [49]; cited from earlier work
# [4] = system: statin-naïve individuals; settings: 1 year (T2D), reference 52, cited from earlier work; for LDL/HDL, decrease: statin-naïve individuals
# [5] = system: 16 subjects with Type II diabetes; settings: cited from earlier work
# [6] = 8 weeks (T2D risk), reference 48
# [7] = meta-analysis, trials of at least 8 weeks, compared to placebo or no treatment [48]
# [8] = 28-day study in 16 subjects with Type II diabetes [47]
smiles,measurement,setting,value
"CN(C)C(=N)N=C(N)N [Metformin, metformin]",patients who cannot tolerate metformin at all,[1]; [53],5%
same,users with severe gastrointestinal side effects,[1]; [53],1 of 4
same,Hypoglycemia,[1]; multiple studies,infrequent event
same,Hypoglycemia,"[1]; multiple studies, listed as metformin",Neither metformin nor DEA administration as presented herein induced hypoglycemia
same,Side effects,"[1]; multiple studies, reference 53",severe gastrointestinal effects
same,"Fasting insulin, decrease",[2]; [6],14.4% decrease
same,"Fasting plasma glucose, decrease",[2]; [6],4.5% decrease
same,change of LDL,[2]; [7],−5.6%
same,change of fasting glucose,[2]; [7],−4.5%
same,change of fasting insulin,[2]; [7],−14.4%
same,increase of HDL,[2]; [7],5.0%
same,reduction of the incidence of diabetes compared to placebo,[3],17%
same,"LDL/HDL, decrease",[4],11.7% decrease
same,"LDL/HDL, decrease",[4]; listed as metformin,11.7%
same,"HDL, increase",[4],5% increase
same,"LDL, decrease",[4],5.6% decrease
same,"Cholesterol/HDL, decrease","[5]; 4 weeks (T2D), reference 47",9.2% decrease
same,fasting glucose,[5]; [8],reduced fasting glucose
same,insulin levels,[5]; [8],no effect on insulin levels
